Consider 22 molecules from PubChem BioAssay AID256 (DTP/NCI, 2004).

For the test, the system named is CD2F1 mice, L1210 leukemia ip, survival T/C. Kind of test: NCI In Vivo Anticancer Drug Screen. Data for tumor model L1210 Leukemia (intraperitoneal) in CD2F1 (CDF1) mice. Particulars: higher = longer survival. Summed up: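 Compound-dosed mice with transplantable tumor versus matched vehicle controls; endpoint ratio T/C reported.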
[1] abbreviates: endpoint: mean survival time, dose: 100.0 mg/kg/injection, schedule: Q04DX003 (ip), vehicle: saline with Tween-80.
The mark [2] stands for this setting: endpoint: mean survival time, dose: 200.0 mg/kg/injection, schedule: Q04DX003 (ip), vehicle: saline with Tween-80.
Setting [3] is: endpoint: mean survival time, dose: 400.0 mg/kg/injection, schedule: Q04DX003 (ip), vehicle: saline with Tween-80.
The mark [4] stands for this setting: endpoint: mean survival time, dose: 100.0 mg/kg/injection, schedule: Q01DX009 (ip), vehicle: saline with Tween-80.
The mark [5] stands for this setting: endpoint: mean survival time, dose: 200.0 mg/kg/injection, schedule: Q01DX009 (ip), vehicle: saline with Tween-80.
Setting [6] is: endpoint: mean survival time, dose: 400.0 mg/kg/injection, schedule: Q01DX009 (ip), vehicle: saline with Tween-80.
Setting [7] is: endpoint: mean survival time, dose: 100.0 mg/kg/injection, schedule: Q04DX002 (ip), vehicle: saline with Tween-80.
The mark [8] stands for this setting: endpoint: mean survival time, dose: 100.0 mg/kg/injection, schedule: Q01DX009 (ip), vehicle: saline.
The mark [9] stands for this setting: endpoint: mean survival time, dose: 400.0 mg/kg/injection, schedule: Q01DX009 (ip), vehicle: saline.

“And” between values parts separate entries of the source, which are not always exact repeats. Identical values can stand only once. Inconclusive results and toxic doses are left out. Non-standard residues stand in square brackets, D forms with d. Residues, ends and D or L forms follow the SMILES beside them. *: point of attachment. Cbz = O=C(OCc1ccccc1)*; Dha = C=C(N)C(=O)O

With `CCCC[P+](CO)(CCCC)CCCC`, the T/C by setting is: (endpoint: mean survival time, dose: 7.5 mg/kg/injection, schedule: Q04DX003 (ip), vehicle: saline) 103 % of control; (endpoint: mean survival time, dose: 15.0 mg/kg/injection, schedule: Q04DX003 (ip), vehicle: saline) 98 % of control; (endpoint: mean survival time, dose: 30.0 mg/kg/injection, schedule: Q04DX003 (ip), vehicle: saline) 101 % of control.

Consider `Cc1ccc(S(=O)(=O)O)cc1.Cc1ccc(S(=O)(=O)O)cc1.[NH-]C1CCCCC1[NH-].[Pt+2]`, for which the T/C reads like this: (endpoint: mean survival time, dose: 2.0 mg/kg/injection, schedule: Q04DX003 (ip), vehicle: other) 177 % of control; (endpoint: mean survival time, dose: 4.0 mg/kg/injection, schedule: Q04DX003 (ip), vehicle: other) 255 % of control; (endpoint: mean survival time, dose: 8.0 mg/kg/injection, schedule: Q04DX003 (ip), vehicle: other) 183 % of control.

Take `C(=C\c1ccncc1)/c1ccccc1`: the T/C reads like this: under setting [1], 93 % of control; under setting [2], 92 % of control; under setting [3], 93 % of control.

Turning to `CC(C)NC1=C(NC(=O)NC(=O)c2ccccc2)C(=O)c2ccccc2C1=O`, the T/C runs as follows: (endpoint: mean survival time, dose: 100.0 mg/kg/injection, schedule: Q01DX001 (ip), vehicle: other) 100 % of control; (endpoint: mean survival time, dose: 200.0 mg/kg/injection, schedule: Q01DX001 (ip), vehicle: other) 103 % of control; (endpoint: mean survival time, dose: 400.0 mg/kg/injection, schedule: Q01DX001 (ip), vehicle: other) 106 % of control.

For the molecule `CC1(C(=O)O)OCCO1`, the T/C is, setting by setting: (endpoint: mean survival time, dose: 100.0 mg/kg/injection, schedule: Q04DX003 (ip), vehicle: saline) 97 % of control; (endpoint: mean survival time, dose: 200.0 mg/kg/injection, schedule: Q04DX003 (ip), vehicle: saline) 103 % of control; (endpoint: mean survival time, dose: 400.0 mg/kg/injection, schedule: Q04DX003 (ip), vehicle: saline) 96 % of control.

With `ClCCCCOCCCCCl`, the T/C under setting [4] is 95 % of control; the T/C under setting [1] is 97 % of control; the T/C under setting [5] is 95 % of control; the T/C under setting [2] was 95 % of control; the T/C under setting [6] was 117 % of control; the T/C under setting [3] was 97 % of control.

Turning to `C=C(NC(=O)CNC(=O)OCc1ccccc1)C(=O)O` (Cbz-Gly-[Dha]-OH), the T/C is, setting by setting: (endpoint: mean survival time, dose: 50.0 mg/kg/injection, schedule: Q04DX002 (ip), vehicle: saline with Tween-80) 102 % of control; under setting [7], 98 % of control; (endpoint: mean survival time, dose: 200.0 mg/kg/injection, schedule: Q04DX002 (ip), vehicle: saline with Tween-80) 96 % of control; (endpoint: mean survival time, dose: 400.0 mg/kg/injection, schedule: Q04DX002 (ip), vehicle: saline with Tween-80) 94 % of control.

For the molecule `CC(=O)C1CC2c3ccccc3C1c1ccccc12` (stereo not drawn), the T/C under setting [4] is 98 % of control; the T/C (endpoint: mean survival time, dose: 100.0 mg/kg/injection, schedule: Q04DX003 (ip), vehicle: saline sonified) was 100 % of control; the T/C under setting [5] is 98 % of control; the T/C (endpoint: mean survival time, dose: 200.0 mg/kg/injection, schedule: Q04DX003 (ip), vehicle: saline sonified) was 98 % of control; the T/C under setting [6] is 95 % of control; the T/C (endpoint: mean survival time, dose: 400.0 mg/kg/injection, schedule: Q04DX003 (ip), vehicle: saline sonified) was 91 % of control.

As for `CCCCCCCC(=O)N1C=CN(C(=O)CCCCCCC)C1`, the T/C is, setting by setting: (endpoint: mean survival time, dose: 75.0 mg/kg/injection, schedule: Q04DX003 (ip), vehicle: saline) 104 % of control; (endpoint: mean survival time, dose: 150.0 mg/kg/injection, schedule: Q04DX003 (ip), vehicle: saline) 98 % of control; (endpoint: mean survival time, dose: 300.0 mg/kg/injection, schedule: Q04DX003 (ip), vehicle: saline) 98 % of control.

With `S=c1nccc[nH]1.[Pt]`, the T/C (endpoint: mean survival time, dose: 3.13 mg/kg/injection, schedule: Q04DX003 (ip), vehicle: distilled water + Tween-80) was 98 % of control; the T/C (endpoint: mean survival time, dose: 6.25 mg/kg/injection, schedule: Q04DX003 (ip), vehicle: distilled water + Tween-80) was 103 % of control; the T/C (endpoint: mean survival time, dose: 12.5 mg/kg/injection, schedule: Q04DX003 (ip), vehicle: distilled water + Tween-80) is 98 % of control; the T/C (endpoint: mean survival time, dose: 25.0 mg/kg/injection, schedule: Q04DX003 (ip), vehicle: distilled water + Tween-80) is 97 % of control; the T/C (endpoint: mean survival time, dose: 50.0 mg/kg/injection, schedule: Q04DX003 (ip), vehicle: distilled water + Tween-80) was 90 % of control; the T/C (endpoint: mean survival time, dose: 100.0 mg/kg/injection, schedule: Q04DX003 (ip), vehicle: distilled water + Tween-80) is 98 % of control. For the setting “endpoint: mean survival time, dose: 200.0 mg/kg/injection, schedule: Q04DX003 (ip), vehicle: distilled water + Tween-80”, the T/C is 98 % of control.

For `Cc1ccccc1N=Cc1ccc(N(C)C)cc1`, the T/C is 96 % of control under setting [4]; 97 % of control under setting [1]; 95 % of control under setting [5]; 103 % of control under setting [2]; 90 % of control under setting [6]; 98 % of control under setting [3].

With `CC(=O)OCC1CCC1`, the T/C was 95 % of control under setting [4], 95 % of control under setting [5] and 103 % of control under setting [6].

Take `O=c1n[n+]([O-])ccn1C1OC(CO)C(O)C1O` (stereo not drawn): the T/C reads like this: (endpoint: mean survival time, dose: 50.0 mg/kg/injection, schedule: Q01DX009 (ip), vehicle: saline) 107 % of control; under setting [8], 120 % of control and 121 % of control; (endpoint: mean survival time, dose: 300.0 mg/kg/injection, schedule: Q01DX009 (ip), vehicle: saline) 157 % of control and 173 % of control; under setting [9], 150 % of control; (endpoint: mean survival time, dose: 600.0 mg/kg/injection, schedule: Q01DX009 (ip), vehicle: saline) 91 % of control; (endpoint: median survival time, dose: 200.0 mg/kg/injection, schedule: Q01DX009 (ip), vehicle: saline) 150 % of control. For the same molecule, the T/C is, setting by setting: (endpoint: median survival time, dose: 288.0 mg/kg/injection, schedule: Q01DX009 (ip), vehicle: saline) 161 % of control; (endpoint: median survival time, dose: 300.0 mg/kg/injection, schedule: Q01DX009 (ip), vehicle: saline) 174 % of control; (endpoint: median survival time, dose: 480.0 mg/kg/injection, schedule: Q01DX009 (ip), vehicle: saline) 180 % of control.

As for `CC1CC2(C)C(CC1=O)CC(C)C1C2CCC2(C)C1CCC2(C)O` (stereo not drawn), the T/C runs as follows: under setting [1], 102 % of control; under setting [2], 102 % of control; under setting [3], 100 % of control.

Take `CC(=O)OC1CCC2(C)C(CCC3C2CCC2(C)C3CC3OC(CCC(C)O)C(C)C32)C1` (stereo not drawn): under setting [7], the T/C is 86 % of control.

Take `N#CCCCN1CCOCC1`: the T/C by setting is: under setting [8], 101 % of control; (endpoint: mean survival time, dose: 200.0 mg/kg/injection, schedule: Q01DX009 (ip), vehicle: saline) 102 % of control; under setting [9], 98 % of control.

For the molecule `CCNc1ncc2ccccc2c1-c1ccc(NCCCl)cc1`, the T/C (endpoint: mean survival time, dose: 25.0 mg/kg/injection, schedule: Q04DX003 (ip), vehicle: other) is 98 % of control; the T/C (endpoint: mean survival time, dose: 50.0 mg/kg/injection, schedule: Q04DX003 (ip), vehicle: other) was 95 % of control; the T/C (endpoint: mean survival time, dose: 100.0 mg/kg/injection, schedule: Q04DX003 (ip), vehicle: other) is 87 % of control; the T/C (endpoint: mean survival time, dose: 200.0 mg/kg/injection, schedule: Q04DX003 (ip), vehicle: other) was 105 % of control; the T/C (endpoint: mean survival time, dose: 400.0 mg/kg/injection, schedule: Q04DX003 (ip), vehicle: other) was 90 % of control.

As for `O=C(O)Cc1c(Cl)n(-c2ccccc2)c2ccccc12`, the T/C reads like this: (endpoint: mean survival time, dose: 25.0 mg/kg/injection, schedule: Q04DX003 (ip), vehicle: saline with Tween-80) 96 % of control; (endpoint: mean survival time, dose: 50.0 mg/kg/injection, schedule: Q04DX003 (ip), vehicle: saline with Tween-80) 102 % of control; under setting [1], 104 % of control.

As to `ClCCn1c(CCl)nc2ccccc21`, the T/C is 98 % of control (endpoint: mean survival time, dose: 10.0 mg/kg/injection, schedule: Q01DX009 (ip), vehicle: saline) and 94 % of control (endpoint: mean survival time, dose: 20.0 mg/kg/injection, schedule: Q01DX009 (ip), vehicle: saline).

Turning to `Cc1nnn2ccccc12`, under “endpoint: mean survival time, dose: 100.0 mg/kg/injection, schedule: Q01DX001 (ip), vehicle: saline”, the T/C was 95 % of control.

Turning to `CCOC(=O)C1(C(=O)OCC)C(C)CC(O)N1C(=O)c1ccccc1[N+](=O)[O-]` (stereo not drawn), the T/C (endpoint: mean survival time, dose: 100.0 mg/kg/injection, schedule: Q01DX001 (ip), vehicle: Klucel (hydroxypropylcellulose) (HPC)) is 100 % of control; the T/C (endpoint: mean survival time, dose: 200.0 mg/kg/injection, schedule: Q01DX001 (ip), vehicle: Klucel (hydroxypropylcellulose) (HPC)) was 96 % of control; the T/C (endpoint: mean survival time, dose: 400.0 mg/kg/injection, schedule: Q01DX001 (ip), vehicle: Klucel (hydroxypropylcellulose) (HPC)) was 104 % of control.

With `CN1CCCN(C)C1c1ccc(Cl)cc1`, the T/C runs as follows: (endpoint: mean survival time, dose: 6.25 mg/kg/injection, schedule: Q01DX009 (ip), vehicle: saline with Tween-80) 98 % of control; (endpoint: mean survival time, dose: 12.5 mg/kg/injection, schedule: Q01DX009 (ip), vehicle: saline with Tween-80) 100 % of control; (endpoint: mean survival time, dose: 25.0 mg/kg/injection, schedule: Q01DX009 (ip), vehicle: saline with Tween-80) 94 % of control.
